Measured values taken from ChEMBL document CHEMBL5696443 (Clin Cancer Res, 2016).
The source made the active and inactive calls. No cut-off for these calls is given here.

How the values were obtained:
[1] = Average plasma concentration in CB-17/SCID mouse implanted with mouse BaF3 cells expressing EML4-ALK G1202R mutant at 25 mg/kg, po administered once daily for 7 days by LC-MS/MS analysis; format: ADME, organism-based; details: in vivo, 168 h, time 7 day
[2] = biological target: Tyrosine-protein kinase ABL1 (Homo sapiens, UniProt P00519, Q252H); assay: Inhibition of human ABL1 Q252H mutant using EAIYAAPFAKKK as substrate in presence of [gamma33P]-ATP by HotSpot assay
[3] = biological target: Macrophage-stimulating protein receptor (Homo sapiens) (UniProt Q04912); assay: Inhibition of human MST1R at 1 uM using KKSRGDYMTMQIG as substrate in presence of [gamma33P]-ATP by HotSpot assay relative to control
[4] = biological target: Casein kinase II subunit alpha (Homo sapiens) (UniProt P68400); assay: Inhibition of human CK2a at 1 uM using RRRDDDSDDD as substrate in presence of [gamma33P]-ATP by HotSpot assay relative to control
[5] = biological target: Serine/threonine-protein kinase 10 (Homo sapiens, UniProt O94804); assay: Inhibition of human STK10 using RLGRDKYKTLRQIRQ as substrate in presence of [gamma33P]-ATP by HotSpot assay
[6] = test system: EML4-ALK (Homo sapiens), Q9UM73+Q9HC35 [F1174I]; details: BaF3, dose 200.0 nmol/L, time 3-5 weeks
[7] = test system: EML4-ALK (Homo sapiens), Q9UM73+Q9HC35 [L1196M]; details: BaF3, dose 500.0 nmol/L, time 3-5 weeks
[8] = biological target: Ephrin type-A receptor 5 (Homo sapiens) (UniProt P54756); assay: Inhibition of human EPHA5 at 1 uM using poly (Glu, Tyr)4:1 as substrate in presence of [gamma33P]-ATP by HotSpot assay relative to control
[9] = test system: EML4-ALK (Homo sapiens), Q9UM73+Q9HC35 [S1206A]; details: BaF3, dose 200.0 nmol/L, time 3-5 weeks
[10] = test system: EML4-ALK (Homo sapiens), Q9UM73+Q9HC35 [V1180L]; details: BaF3, dose 500.0 nmol/L, time 3-5 weeks
[11] = biological target: Ribosomal protein S6 kinase beta-2 (Homo sapiens) (UniProt Q9UBS0); assay: Inhibition of human RPS6KB2 at 1 uM using KKRNRTLTK as substrate in presence of [gamma33P]-ATP by HotSpot assay relative to control
[12] = biological target: Serine/threonine-protein kinase 24 (Homo sapiens) (UniProt Q9Y6E0); assay: Inhibition of human STK24 at 1 uM using MBP as substrate in presence of [gamma33P]-ATP by HotSpot assay relative to control
[13] = biological target: Glycogen synthase kinase-3 beta (Homo sapiens) (UniProt P49841); assay: Inhibition of human GSK3beta at 1 uM using YRRAAVPPSPSLSRHSSPHQ(pS)EDEEE as substrate in presence of [gamma33P]-ATP by HotSpot assay relative to control
[14] = test system: BaF3; assay: Antitumor activity against mouse BaF3 cells expressing EML4-ALK L1196M mutant implanted in mouse assessed as tumor regression at 50 mg/kg, po administered once daily and measured after 8 days relative to control; format: functional; details: time 8 day
[15] = biological target: Calcium/calmodulin-dependent protein kinase kinase 1 (Homo sapiens) (UniProt Q8N5S9); assay: Inhibition of human CAMKK1 at 1 uM using MBP as substrate in presence of [gamma33P]-ATP by HotSpot assay relative to control
[16] = biological target: Tyrosine-protein kinase Tec (Homo sapiens) (UniProt P42680); assay: Inhibition of human TEC at 1 uM using poly (Glu, Tyr)4:1 as substrate in presence of [gamma33P]-ATP by HotSpot assay relative to control
[17] = test system: NCI-H3122; assay: Inhibition of ERK phosphorylation in ALK-positive human NCI-H3122 cells at 1 to 1000 nM incubated for 1 hrs by immunoblot analysis; format: cell-based; details: dose 1-1000 nM

Question: Which Cave [1] does the source give for COc1cc(N2CCC(N3CCN(C)CC3)CC2)ccc1Nc1ncc(Cl)c(Nc2ccccc2P(C)(C)=O)n1 [BRIGATINIB] here?
Answer: 2546 nM

Question: What about the IC50 [2] of the same molecule?
Answer: 0.171 µM

Question: What about the inhibition [3] of the same molecule?
Answer: < 90%

Question: What about the inhibition [4] of the same molecule?
Answer: < 90%

Question: What about the IC50 [5] of the same molecule?
Answer: 0.123 µM

Question: And the inhibition [6]?
Answer: inactive

Question: And the inhibition [7]?
Answer: Active

Question: And the inhibition [8]?
Answer: < 90%

Question: What about the inhibition [9] of the same molecule?
Answer: inactive

Question: And the inhibition [10]?
Answer: Active

Question: And the inhibition [11]?
Answer: < 90%

Question: What about the inhibition [12] of the same molecule?
Answer: < 90%

Question: And the inhibition [13]?
Answer: < 90%

Question: What about the Activity [14] of the same molecule?
Answer: 67%

Question: What about the inhibition [15] of the same molecule?
Answer: < 90%

Question: What about the inhibition [16] of the same molecule?
Answer: < 90%

Question: What about the inhibition [17] of the same molecule?
Answer: Active
